In series [1] the target is T1, Tyrosine-protein phosphatase non-receptor type 2 (Homo sapiens) (UniProt P17706).
T1 sequence (whole entry): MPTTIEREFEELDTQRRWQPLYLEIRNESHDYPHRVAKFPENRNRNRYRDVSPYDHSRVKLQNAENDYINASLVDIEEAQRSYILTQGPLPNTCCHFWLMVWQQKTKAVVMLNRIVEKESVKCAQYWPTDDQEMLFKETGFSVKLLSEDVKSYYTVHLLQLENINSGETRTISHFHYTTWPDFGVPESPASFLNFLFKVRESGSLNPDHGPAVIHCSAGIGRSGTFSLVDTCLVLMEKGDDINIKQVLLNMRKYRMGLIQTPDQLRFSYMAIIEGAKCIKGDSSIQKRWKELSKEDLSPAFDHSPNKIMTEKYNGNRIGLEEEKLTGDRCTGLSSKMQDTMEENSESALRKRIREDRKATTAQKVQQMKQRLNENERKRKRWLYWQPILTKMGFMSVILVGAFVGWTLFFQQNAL
Briefly: Inhibition of TCPTP (unknown origin) using DiFMUP as substrate at 5 uM relative to control.

Series [2] concerns the target T2, Tyrosine-protein phosphatase non-receptor type 11 (Homo sapiens) (UniProt Q06124).
T2 sequence (whole entry): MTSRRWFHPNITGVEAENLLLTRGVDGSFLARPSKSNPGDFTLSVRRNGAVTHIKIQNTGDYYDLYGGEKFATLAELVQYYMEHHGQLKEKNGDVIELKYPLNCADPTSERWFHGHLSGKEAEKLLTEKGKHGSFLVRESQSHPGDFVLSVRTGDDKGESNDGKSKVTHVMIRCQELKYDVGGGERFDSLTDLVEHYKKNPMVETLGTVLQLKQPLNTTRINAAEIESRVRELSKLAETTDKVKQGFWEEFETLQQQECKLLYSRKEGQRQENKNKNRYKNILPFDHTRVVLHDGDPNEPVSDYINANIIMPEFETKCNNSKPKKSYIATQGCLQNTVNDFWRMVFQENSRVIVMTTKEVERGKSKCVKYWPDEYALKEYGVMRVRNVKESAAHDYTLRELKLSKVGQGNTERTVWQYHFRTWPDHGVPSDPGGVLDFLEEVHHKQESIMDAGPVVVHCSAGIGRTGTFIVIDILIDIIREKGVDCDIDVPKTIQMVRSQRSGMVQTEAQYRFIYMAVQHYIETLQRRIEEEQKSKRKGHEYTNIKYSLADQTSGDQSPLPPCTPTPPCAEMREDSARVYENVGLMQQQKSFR
Briefly: Inhibition of SHP2 (unknown origin) using DiFMUP as substrate at 5 uM relative to control.

Series [3] addresses T3, Low molecular weight phosphotyrosine protein phosphatase (Homo sapiens) (UniProt P24666).
T3 sequence (whole entry): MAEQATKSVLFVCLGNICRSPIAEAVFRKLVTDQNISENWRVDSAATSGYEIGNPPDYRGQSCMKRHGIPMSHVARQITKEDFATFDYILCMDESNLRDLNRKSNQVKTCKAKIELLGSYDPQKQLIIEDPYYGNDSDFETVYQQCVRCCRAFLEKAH
Briefly: Inhibition of LMPTPA (unknown origin) using DiFMUP as substrate at 5 uM relative to control.

The target in series [4] is T4, Receptor-type tyrosine-protein phosphatase C (Homo sapiens) (UniProt P08575).
T4 sequence (whole entry): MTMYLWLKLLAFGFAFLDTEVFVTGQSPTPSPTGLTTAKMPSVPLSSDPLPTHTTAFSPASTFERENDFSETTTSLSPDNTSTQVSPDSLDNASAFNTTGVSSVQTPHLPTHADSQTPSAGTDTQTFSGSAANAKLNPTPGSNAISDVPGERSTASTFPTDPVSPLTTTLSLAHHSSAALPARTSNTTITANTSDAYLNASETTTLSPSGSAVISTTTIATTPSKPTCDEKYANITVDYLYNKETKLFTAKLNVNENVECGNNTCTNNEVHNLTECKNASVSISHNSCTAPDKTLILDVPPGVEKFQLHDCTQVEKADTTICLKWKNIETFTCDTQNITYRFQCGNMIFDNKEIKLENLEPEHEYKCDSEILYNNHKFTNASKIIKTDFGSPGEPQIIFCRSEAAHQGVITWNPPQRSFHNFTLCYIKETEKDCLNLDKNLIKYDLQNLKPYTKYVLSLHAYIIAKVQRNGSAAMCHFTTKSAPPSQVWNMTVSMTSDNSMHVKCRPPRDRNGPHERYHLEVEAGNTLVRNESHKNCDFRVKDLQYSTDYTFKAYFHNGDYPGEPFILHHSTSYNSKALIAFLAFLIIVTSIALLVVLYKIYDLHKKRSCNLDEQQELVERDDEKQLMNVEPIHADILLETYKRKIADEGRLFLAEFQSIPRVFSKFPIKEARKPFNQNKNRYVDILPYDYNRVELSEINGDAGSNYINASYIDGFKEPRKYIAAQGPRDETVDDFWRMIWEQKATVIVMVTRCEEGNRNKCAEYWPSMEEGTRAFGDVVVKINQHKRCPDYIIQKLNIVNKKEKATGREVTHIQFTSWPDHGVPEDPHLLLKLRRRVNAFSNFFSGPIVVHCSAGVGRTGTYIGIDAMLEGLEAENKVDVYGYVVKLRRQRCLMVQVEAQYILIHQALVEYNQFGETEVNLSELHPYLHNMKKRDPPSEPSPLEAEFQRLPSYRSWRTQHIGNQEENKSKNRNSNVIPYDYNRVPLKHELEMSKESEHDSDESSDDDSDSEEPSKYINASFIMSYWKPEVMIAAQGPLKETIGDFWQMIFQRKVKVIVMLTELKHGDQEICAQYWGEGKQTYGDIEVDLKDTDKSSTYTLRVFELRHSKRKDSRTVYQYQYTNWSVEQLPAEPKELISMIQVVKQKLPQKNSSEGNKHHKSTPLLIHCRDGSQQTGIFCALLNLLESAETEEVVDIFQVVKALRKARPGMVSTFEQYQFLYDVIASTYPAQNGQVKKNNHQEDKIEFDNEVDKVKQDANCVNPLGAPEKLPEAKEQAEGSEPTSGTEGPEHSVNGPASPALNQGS
The series is described as follows: Inhibition of CD45 (unknown origin) using DiFMUP as substrate at 5 uM relative to control.

For the next series, the system named is MIA PaCa-2. Briefly: Antimigratory activity against human MIAPaCa2 cells overexpressing PRL3 at 10 to 20 uM after 20 hrs by crystal violet staining-based light microscopic analysis. It is filed as functional, cell-based.
The next series deals with DU-145. Briefly: Antimigratory activity against human DU145 cells expressing low level of PRL3 at 10 to 20 uM after 20 hrs by crystal violet staining-based light microscopic analysis. It is filed as functional, cell-based.
A short description of series [5]: Cytotoxicity against human DLD1 cells overexpressing PRL3 assessed as cell viability at 10 ug/ml after 24 hrs by WST-1 assay relative to control. It is filed as cell-based. As to conditions: DLD-1 cells overexpressing PRL3, read-out: Activity. In general terms: Formazan colour is commonly taken as a measure of viable cells.
The test system of series [6] is DLD-1. The series is described as follows: Antimigratory activity against human DLD1 cells overexpressing PRL3 by crystal violet staining-based light microscopic analysis. The class given is functional, cell-based.
For series [7], the system named is DLD-1. The series is described as follows: Antimigratory activity against human DLD1 cells overexpressing PRL3 at 10 ug/ml after 20 hrs by crystal violet staining-based light microscopic analysis relative to control. It is filed as functional. The settings on record: DLD-1, 20 h.

Activity calls are given as the source filed them. The calls are words filed in the database; no cut-off is given here.

Usually inhibition stands for how much of the control response was suppressed. In general, IC50 refers to the concentration at which inhibition is half-maximal. Higher therefore signals weaker potency in that assay. Consider `COc1ccccc1COc1ccccc1/C=C/C=C1\SC(=S)NC1=O`, for which the inhibition in series [1] is 1%; in series [2] it was 18%; in series [3], 6%; in series [4], 11%; in the series on DLD-1 [6], “Dose-dependent effect”. Further, the outcome with MIA PaCa-2 was Active. The result in the series with DU-145 was inactive. Besides, the viability at 24 h, 10 ug/ml in series [5] came out at 99.5%. For the same molecule, the IC50 with DLD-1 [6] amounted to 5 µM. Also, in the series on DLD-1 [7], 10 µg/mL produced 98% inhibition.

Consider `O=C1NC(=S)S/C1=C\c1cc(Br)ccc1OCc1ccccc1Br`, for which the inhibition in [1] was 9%; in series [2] it was 27%; in [3], 0%; in series [4], 12%; in the series with DLD-1 [6], “Dose-dependent effect”. Also, the outcome in the series with MIA PaCa-2 was Active. Further, in the series on DU-145, the result was inactive. Also, the viability at 24 h, 10 ug/ml in [5] came out at 98.1%. In the series with DLD-1 [6], this molecule returned a half-maximal inhibitory concentration (IC50) of 7 µM. This molecule also came in with an inhibition at 10 µg/mL in the series with DLD-1 [7] of 95%.

Values taken from ChEMBL document CHEMBL2396625 (Bioorg Med Chem Lett, 2013).
